The values below come from ChEMBL document CHEMBL3769333, “A mode of action study of cationic anthraquinone analogs: a new class of highly potent anticancer agents” (Medchemcomm, 2015).

The source made the active and inactive calls. No cut-off for these calls is given here.

The nature of data set [1]: Cytotoxicity against human NCI60 cells assessed as cell growth relative to control. Set-up: concentration or dose not given beside the values. Type of data set: functional.
The nature of data set [2]: Induction of ROS level in anhydrous acetonitrile electrolyte assessed as second half wave redox potential at 2 mM using Ag/AgCl reference electrode by cyclic voltammetry. Type of data set: physicochemical. The settings on record: 2000 µM.
Data set [3] is described as follows: Induction of ROS level in anhydrous acetonitrile electrolyte assessed as first half wave redox potential at 2 mM using Ag/AgCl reference electrode by cyclic voltammetry. The data set is classed as physicochemical. The settings on record: 2000 µM.
For data set [4], the system named is Escherichia coli. The data set can be described thus: Induction of Escherichia coli supercoiled pUC19 DNA cleavage at 240 uM after 24 hrs by agarose gel electrophoresis.
The subject of data set [5] is Escherichia coli. The data set can be described thus: Induction of Escherichia coli supercoiled pUC19 DNA cleavage assessed as appearance of nicked supercoiled DNA after 24 hrs by agarose gel electrophoresis in absence of transition metal complex, light irradiation or oxidative reagent.
For data set [6], the system named is A549. The data set can be described thus: Induction of apoptosis in human A549 cells assessed as increase in ROS level at 10 to 100 nM after 4 hrs by DCFH-DA staining based flow cytometry. The data set is classed as functional, cell-based.
A short description of data set [7]: Growth inhibition of human […] cells assessed as reduction in cell viability after 48 hrs by MTT assay. Type of data set: cell-based.
Data set [8] concerns A549. The data set can be described thus: Induction of mitochondrial membrane potential loss in human A549 cells at 10 to 100 nM after 24 hrs by rhodamine 123 staining based flow cytometry (reference value: 1.7%). The data set is classed as functional.
Data set [9] relates to A549. Briefly: Induction of apoptosis in human A549 cells assessed as apoptotic cells at 0.1 uM after 24 hrs by Annexin V/propidium iodide staining based flow cytometry (reference value: 7.7%). The data set is classed as functional.
The test system of data set [10] is A549. The data set can be described thus: Induction of apoptosis in human A549 cells assessed as apoptotic cells at 0.01 uM after 24 hrs by Annexin V/propidium iodide staining based flow cytometry (reference value: 7.7%). The data set is classed as functional.
Data set [11] has as its system A549. Briefly: Induction of apoptosis in human A549 cells assessed as increase in ROS level at 100 uM after 4 hrs by DCFH-DA staining based flow cytometry relative to control. Type of data set: functional.
Data set [12] deals with A549. The data set can be described thus: Cell cycle arrest in human A549 cells assessed as accumulation at S phase at 0.01 to 100 uM after 24 hrs by propidium idoide staining based flow cytometry. Type of data set: functional.
For data set [13], the system named is A549. Briefly: Growth inhibition of human A549 cells assessed as reduction in cell viability after 48 hrs by MTT assay. The data set is classed as functional, cell-based. The settings on record: A549, 48 h.
Data set [14] deals with A549. Briefly: Induction of apoptosis in human A549 cells assessed as cell shrinkage at 1 to 100 uM after 24 hrs by microscopy. Type of data set: functional, cell-based.
For data set [15], the system named is A549. Briefly: Induction of apoptosis in human A549 cells assessed as apoptotic cells at 1 uM after 24 hrs by Annexin V/propidium iodide staining based flow cytometry (reference value: 7.7%). Type of data set: functional.
Data set [16] deals with A549. The data set can be described thus: Induction of apoptosis in human A549 cells assessed as mitochondrial membrane damage at 100 uM after 24 hrs by microscopy. Type of data set: functional, cell-based.
In data set [17] the test system is A549. Briefly: Induction of apoptosis in human A549 cells assessed as apoptotic cells at 10 uM after 24 hrs by Annexin V/propidium iodide staining based flow cytometry (reference value: 7.7%). The data set is classed as functional.
In data set [18] the test system is A549. Briefly: Induction of apoptosis in human A549 cells assessed as increase in ROS level at 10 uM after 4 hrs by DCFH-DA staining based flow cytometry relative to control. Type of data set: functional.
The subject of data set [19] is A549. Briefly: Induction of mitochondrial membrane potential loss in human A549 cells at 100 uM after 24 hrs by rhodamine 123 staining based flow cytometry (reference value: 1.7%). The data set is classed as functional.
The test system of data set [20] is A549. Briefly: Reduction of glutathione level in human A549 cells at 100 uM after 48 hrs by fluorometric assay. Set-up: scale not given: the % may be the effect or the level left. The data set is classed as functional.
For data set [21], the system named is A549. The data set can be described thus: Induction of mitochondrial membrane potential loss in human A549 cells at 10 uM after 24 hrs by rhodamine 123 staining based flow cytometry (reference value: 1.7%). Type of data set: functional.
Data set [22] has as its system A549. Briefly: Induction of apoptosis in human A549 cells assessed as nuclear condensation at 100 uM after 24 hrs by microscopy. Type of data set: functional, cell-based.
Data set [23] has as its system A549. Briefly: Induction of mitochondrial membrane potential loss in human A549 cells at 1 uM after 24 hrs by rhodamine 123 staining based flow cytometry (reference value: 1.7%). The data set is classed as functional.
The test system of data set [24] is A549. The data set can be described thus: Reduction of glutathione level in human A549 cells at 10 uM after 48 hrs by fluorometric assay. Also noted: scale not given: the % may be the effect or the level left. Type of data set: functional.
Data set [25] concerns A549. The data set can be described thus: Cell cycle arrest in human A549 cells assessed as accumulation at G2 phase at 0.01 to 100 uM after 24 hrs by propidium idoide staining based flow cytometry. The data set is classed as functional.
Data set [26] has as its system A549. The data set can be described thus: Reduction of glutathione in human A549 cells assessed as glutathione level after 48 hrs by fluorometric assay. Type of data set: functional, cell-based.
For data set [27], the system named is A549. The data set can be described thus: Cell cycle arrest in human A549 cells assessed as accumulation at sub G1 phase at 0.01 to 100 uM after 24 hrs by propidium idoide staining based flow cytometry. The data set is classed as functional.
Data set [28] has as its system A549. The data set can be described thus: Cell cycle arrest in human A549 cells assessed as accumulation at G1 phase at 0.01 to 100 uM after 24 hrs by propidium idoide staining based flow cytometry. The data set is classed as functional.
For data set [29], the system named is A549. Briefly: Reduction of glutathione level in human A549 cells at 1 uM after 48 hrs by fluorometric assay. Type of data set: functional. Also noted: scale not given: the % may be the effect or the level left.
The test system of data set [30] is A549. Briefly: Reduction of glutathione level in human A549 cells at 0.1 uM after 48 hrs by fluorometric assay. The data set is classed as functional. Set-up: scale not given: the % may be the effect or the level left.
The subject of data set [31] is A549. The data set can be described thus: Induction of alteration in mitochondrial membrane potential in human A549 cells after 24 hrs by rhodamine 123 staining based flow cytometry. The data set is classed as functional, cell-based.
Data set [32] concerns A549. Briefly: Induction of apoptosis in human A549 cells assessed as apoptotic cells at 100 uM after 24 hrs by Annexin V/propidium iodide staining based flow cytometry (reference value: 7.7%). Type of data set: functional.
Data set [33] has as its system A549. Briefly: Selectivity index, ratio of IC50 for human […] cells to IC50 for human A549 cells. Type of data set: functional.
A short description of data set [34]: Induction of ROS level assessed as half reduction potential using Ag/AgCl reference electrode by cyclic voltammetry. Type of data set: physicochemical.
The nature of data set [35]: Induction of ROS level assessed as half reduction potential using saturated calomel electrode by cyclic voltammetry. The data set is classed as physicochemical.

With `C[n+]1nn(-c2ccc(Cl)cc2)c2c1C(=O)c1ccccc1C2=O.O=S(=O)([O-])C(F)(F)F`, the Activity is listed as 101.7% in [1], -842.5 mV in [2] and -148.5 mV in data set [3]. Besides, the result in data set [4] was Active.
Regarding `C[n+]1nn(-c2ccccc2)c2c1C(=O)c1ccccc1C2=O.O=S(=O)([O-])C(F)(F)F`, the Activity in [1] is -10.18%; in data set [2] it was -866.5 mV; in data set [5] it was “Dose-dependent effect”; in data set [3], -163.5 mV.
As for `COc1cc(OC)cc(-n2n[n+](C)c3c2C(=O)c2ccccc2C3=O)c1.O=S(=O)([O-])C(F)(F)F`, the Activity in [1] is given as -27.06%; in data set [2], -762 mV; in [3] it was -182.5 mV. In data set [4], the outcome was Active.
With `COc1ccc(-n2n[n+](C)c3c2C(=O)c2ccccc2C3=O)cc1.O=S(=O)([O-])C(F)(F)F`, the outcome in [6], in data set [12], in [25], in data set [27] and in [28] was inactive. Further, the IC50 in data set [7] was 35 µM; in [13], 4.2 µM. The Activity is listed as 2.55% in [8]; 11.06% in data set [9]; 8.74% in data set [10]; 226% in data set [11]; 11.07% in data set [15]; 35.44% in data set [17]. In addition, the Activity was 133% in data set [18]; 88.05% in data set [19]; 12.13% in data set [20]; 51.4% in data set [21]; 4.1% in data set [23]; 23.87% in data set [24]. Further, the Activity entry in [26] was “Dose-dependent effect”; in [1], -24.7%; in data set [2] it was -885 mV; in [29], 88.76%; in [30], 99.35%; in data set [3], -182.5 mV. Also, the Activity entry in data set [31] is “Dose-dependent effect”; in data set [32], 61.28%. Further, the outcome in data set [14], in data set [16], in data set [22] and in data set [4] was Active. The “Ratio IC50” value in data set [33] amounted to 8.
On to `CCCCCCCCn1n[n+](C)c2c1C(=O)c1ccccc1C2=O.O=S(=O)([O-])C(F)(F)F`, for which the Activity in data set [11] amounted to 177%; in [18], 108%; in data set [19] it was 50%; in [21] it was 25%. The concentration for half-maximal inhibition (IC50) in data set [13] amounted to 83.3 µM.
Turning to `COc1cc([C@@H]2c3cc4c(cc3[C@@H](O[C@@H]3O[C@@H]5CO[C@@H](C)O[C@H]5[C@H](O)[C@H]3O)[C@H]3COC(=O)[C@H]23)OCO4)cc(OC)c1O` [ETOPOSIDE], the IC50 in [13] stood at 3.9 µM.
`C[n+]1nn(-c2ccc(F)cc2)c2c1C(=O)c1ccccc1C2=O.O=S(=O)([O-])C(F)(F)F`: the Activity in data set [1] is given as 43.38%; in data set [2] it was -886 mV; in data set [3] it was -156.5 mV. Further, in data set [4], the outcome was Active.
As for `COc1cc(-n2n[n+](C)c3c2C(=O)c2ccccc2C3=O)cc(OC)c1OC.O=S(=O)([O-])C(F)(F)F`, the Activity in data set [1] is recorded as 23.23%; in data set [2], -867 mV; in [3], -168 mV. In addition, in data set [4], the result was Active.
On to `COc1ccc(-n2n[n+](C)c3c2C(=O)c2ccccc2C3=O)cc1OC.O=S(=O)([O-])C(F)(F)F`, for which the results for the Activity in data set [1], in data set [2] and in data set [3] were -31.51%, -885.5 mV and -182 mV, respectively. Also, the outcome in data set [4] was Active.
Consider `Cc1ccc(-n2n[n+](C)c3c2C(=O)c2ccccc2C3=O)cc1.O=S(=O)([O-])C(F)(F)F`, for which the Activity in data set [1] is listed as 11.53%; in [2] it was -881.5 mV; in [3] it was -176 mV. Further, the outcome in [4] was Active.
For `COC1=C(OC)C(=O)C(C/C=C(\C)CC/C=C(\C)CC/C=C(\C)CC/C=C(\C)CC/C=C(\C)CC/C=C(\C)CC/C=C(\C)CC/C=C(\C)CC/C=C(\C)CCC=C(C)C)=C(C)C1=O` [UBIDECARENONE], the Activity is listed as -567 mV in [34] and -602 mV in data set [35].
Regarding `C[n+]1nn(-c2ccc(C(F)(F)F)cc2)c2c1C(=O)c1ccccc1C2=O.O=S(=O)([O-])C(F)(F)F`, the Activity in data set [1] is 58.69%; in [2], -823.5 mV; in data set [3], -130.5 mV. In addition, the outcome in data set [4] was Active.
